US10159640B2, “Prebiotic oral care compositions containing amino acids” (COLGATE-PALMOLIVE COMPANY, priority 2013, dated 2018)

Tests used:
Test in all cases: Metabolic activity, Biolog phenotype microarray
Assay type in all cases: cell-based
Details in all cases: control without dipeptide = 1
Actinomyces naeslundii = system: Actinomyces naeslundii
Method in brief: (§1)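 Each species, grown 48 h anaerobically on blood agar, was suspended in IF-0 fluid with tetrazolium Redox Dye D, succinate and ferric citrate, then dispensed onto dipeptide-preloaded plates. Incubated anaerobically at 37° C; OD 492 nm read at 24 and 48 h versus no-dipeptide controls; mean of three biological replicates.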

Actinomyces viscosus = system: Actinomyces viscosus
Method in brief: as §1

[1] = system: Aggregatibacter actinomycetemcomitans
Method in brief: as §1

Capnocytophaga sputigena = system: Capnocytophaga sputigena
Method in brief: as §1

Fusobacterium nucleatum = system: Fusobacterium nucleatum
Method in brief: as §1

Porphyromonas gingivalis = system: Porphyromonas gingivalis
Method in brief: as §1

Prevotella intermedia = system: Prevotella intermedia
Method in brief: as §1

Streptococcus gordonii = system: Streptococcus gordonii
Method in brief: as §1

Streptococcus mitis = system: Streptococcus mitis
Method in brief: as §1

Streptococcus mutans = system: Streptococcus mutans
Method in brief: as §1

Streptococcus salivarius = system: Streptococcus salivarius
Method in brief: as §1

Streptococcus sanguinis = system: Streptococcus sanguinis
Method in brief: as §1

Streptococcus sobrinus = system: Streptococcus sobrinus
Method in brief: as §1

Tannerella forsythia = system: Tannerella forsythia
Method in brief: as §1

Veillonella parvula = system: Veillonella parvula
Method in brief: as §1

Substance	metabolic activity: OD 492 nm divided by OD of control (Actinomyces naeslundii; 24 hrs)	metabolic activity: OD 492 nm divided by OD of control (Actinomyces naeslundii; 48 hrs)	metabolic activity: OD 492 nm divided by OD of control (Actinomyces viscosus; 24 hrs)	metabolic activity: OD 492 nm divided by OD of control (Actinomyces viscosus; 48 hrs)	metabolic activity: OD 492 nm divided by OD of control ([1]; 24 hrs)	metabolic activity: OD 492 nm divided by OD of control ([1]; 48 hrs)	metabolic activity: OD 492 nm divided by OD of control (Capnocytophaga sputigena; 24 hrs)	metabolic activity: OD 492 nm divided by OD of control (Capnocytophaga sputigena; 48 hrs)	metabolic activity: OD 492 nm divided by OD of control (Fusobacterium nucleatum; 24 hrs)	metabolic activity: OD 492 nm divided by OD of control (Fusobacterium nucleatum; 48 hrs)	metabolic activity: OD 492 nm divided by OD of control (Porphyromonas gingivalis; 24 hrs)	metabolic activity: OD 492 nm divided by OD of control (Porphyromonas gingivalis; 48 hrs)	metabolic activity: OD 492 nm divided by OD of control (Prevotella intermedia; 24 hrs)	metabolic activity: OD 492 nm divided by OD of control (Prevotella intermedia; 48 hrs)	metabolic activity: OD 492 nm divided by OD of control (Streptococcus gordonii; 24 hrs)	metabolic activity: OD 492 nm divided by OD of control (Streptococcus gordonii; 48 hrs)	metabolic activity: OD 492 nm divided by OD of control (Streptococcus mitis; 24 hrs)	metabolic activity: OD 492 nm divided by OD of control (Streptococcus mitis; 48 hrs)	metabolic activity: OD 492 nm divided by OD of control (Streptococcus mutans; 24 hrs)	metabolic activity: OD 492 nm divided by OD of control (Streptococcus mutans; 48 hrs)	further results
Met-Pro	1.0381	1.0427	1.5865	2.0588	0.9162	0.8616	2.5077	1.8376	0.8752	0.8113	1.0029	1.0774	0.9704	0.9393	1.0870	1.0447	1.0020	0.9214	0.9563	0.9242	metabolic activity: OD 492 nm divided by OD of control (Streptococcus salivarius; 24 hrs): 0.9990; metabolic activity: OD 492 nm divided by OD of control (Streptococcus salivarius; 48 hrs): 0.9500; metabolic activity: OD 492 nm divided by OD of control (Streptococcus sanguinis; 24 hrs): 0.8599; metabolic activity: OD 492 nm divided by OD of control (Streptococcus sanguinis; 48 hrs): 0.8295; metabolic activity: OD 492 nm divided by OD of control (Streptococcus sobrinus; 24 hrs): 1.0338; metabolic activity: OD 492 nm divided by OD of control (Streptococcus sobrinus; 48 hrs): 1.0538; metabolic activity: OD 492 nm divided by OD of control (Tannerella forsythia; 24 hrs): 0.9040; metabolic activity: OD 492 nm divided by OD of control (Tannerella forsythia; 48 hrs): 0.9403; metabolic activity: OD 492 nm divided by OD of control (Veillonella parvula; 24 hrs): 0.7714; metabolic activity: OD 492 nm divided by OD of control (Veillonella parvula; 48 hrs): 0.6345
Phe-Glu	0.9642	0.9466	1.3824	2.1224	0.9204	0.9345	2.1428	1.7139	0.9451	0.9112	0.9806	0.9029	1.0519	0.9562	0.8472	0.9890	1.0644	1.1176	1.0352	0.9816	metabolic activity: OD 492 nm divided by OD of control (Streptococcus salivarius; 24 hrs): 1.0411; metabolic activity: OD 492 nm divided by OD of control (Streptococcus salivarius; 48 hrs): 0.9959; metabolic activity: OD 492 nm divided by OD of control (Streptococcus sanguinis; 24 hrs): 1.0204; metabolic activity: OD 492 nm divided by OD of control (Streptococcus sanguinis; 48 hrs): 1.0208; metabolic activity: OD 492 nm divided by OD of control (Streptococcus sobrinus; 24 hrs): 1.0354; metabolic activity: OD 492 nm divided by OD of control (Streptococcus sobrinus; 48 hrs): 1.0539; metabolic activity: OD 492 nm divided by OD of control (Tannerella forsythia; 24 hrs): 1.0452; metabolic activity: OD 492 nm divided by OD of control (Tannerella forsythia; 48 hrs): 1.0015; metabolic activity: OD 492 nm divided by OD of control (Veillonella parvula; 24 hrs): 0.8043; metabolic activity: OD 492 nm divided by OD of control (Veillonella parvula; 48 hrs): 0.7552
